Reference: the supplement of paper PMC10307832

What was measured:
Test in all cases: relative viability (nuclei count vs DMSO), 5 days (fraction); higher = more cells survive
[1] = system: 201T
Procedure, shortened: (§1)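 After 5 days of treatment, lung cancer cells in 1536-well plates were fixed and stained in a single step (final 0.05% Triton X-100, 1% formaldehyde, 1 ug/ml Hoechst) and their nuclei counted on 4× images. Treatment had been applied by pin tool the day after seeding as one drug alone or as a fixed anchor-drug dose with five library-drug doses (not always all listed) in √10 steps. Relative viability is the nuclei count of treated wells divided by that of vehicle wells, and values are medians of duplicate plates.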

[2] = system: ABC-1
Procedure, shortened: as §1

[3] = system: COR-L 105
Procedure, shortened: as §1

[4] = system: COR-L23
Procedure, shortened: as §1

[5] = system: EKVX
Procedure, shortened: as §1

[6] = system: EPLC-272H
Procedure, shortened: as §1

[7] = system: H3255
Procedure, shortened: as §1

[8] = system: HCC-15
Procedure, shortened: as §1

[9] = system: HCC-44
Procedure, shortened: as §1

[10] = system: HCC-827
Procedure, shortened: as §1

[11] = system: NCI-H1437
Procedure, shortened: as §1

[12] = system: NCI-H1650
Procedure, shortened: as §1

[13] = system: NCI-H1651
Procedure, shortened: as §1

[14] = system: NCI-H1792
Procedure, shortened: as §1

[15] = system: NCI-H1975
Procedure, shortened: as §1

[16] = system: NCI-H2087
Procedure, shortened: as §1

[17] = system: NCI-H358
Procedure, shortened: as §1

[18] = system: NCI-H520
Procedure, shortened: as §1

[19] = system: NCI-H647
Procedure, shortened: as §1

[20] = system: NCI-H661
Procedure, shortened: as §1

[21] = system: NCI-H727
Procedure, shortened: as §1

[22] = system: UMC-11
Procedure, shortened: as §1

SMILES: Cc1cnc(-c2cnc(NCCNc3ccc(C#N)cn3)nc2-c2ccc(Cl)cc2Cl)[nH]1 + CS(=O)(=O)CCNCc1ccc(-c2ccc3ncnc(Nc4ccc(OCc5cccc(F)c5)c(Cl)c4)c3c2)o1 [Lapatinib] (partner 2 µM)
- relative viability ([1]; first compound 0.08 µM): 1.05
- relative viability ([1]; first compound 0.253 µM): 0.551
- relative viability ([1]; first compound 0.8 µM): 1.01
- relative viability ([1]; first compound 2.53 µM): 0.988
- relative viability ([2]; first compound 0.08 µM): 1.22
- relative viability ([2]; first compound 0.253 µM): 0.969
- relative viability ([2]; first compound 0.8 µM): 1.09
- relative viability ([2]; first compound 2.53 µM): 1.11
- relative viability ([3]; first compound 0.08 µM): 0.397
- relative viability ([3]; first compound 0.253 µM): 0.348
- relative viability ([3]; first compound 0.8 µM): 0.318
- relative viability ([3]; first compound 2.53 µM): 0.403
- relative viability ([4]; first compound 0.08 µM): 0.924
- relative viability ([4]; first compound 0.253 µM): 0.856
- relative viability ([4]; first compound 0.8 µM): 0.862
- relative viability ([4]; first compound 2.53 µM): 0.905
- relative viability ([5]; first compound 0.08 µM): 0.235
- relative viability ([5]; first compound 0.253 µM): 0.222
- relative viability ([5]; first compound 2.53 µM): 0.224
- relative viability ([6]; first compound 0.08 µM): 1.08
- relative viability ([6]; first compound 0.253 µM): 0.88
- relative viability ([6]; first compound 0.8 µM): 0.599
- relative viability ([6]; first compound 2.53 µM): 0.946
- relative viability ([7]; first compound 0.08 µM): 0.28
- relative viability ([7]; first compound 0.253 µM): 0.249
- relative viability ([7]; first compound 0.8 µM): 0.219
- relative viability ([7]; first compound 2.53 µM): 0.244
- relative viability ([8]; first compound 0.08 µM): 0.813
- relative viability ([8]; first compound 0.253 µM): 0.577
- relative viability ([8]; first compound 0.8 µM): 0.903
- relative viability ([8]; first compound 2.53 µM): 0.843
- relative viability ([9]; first compound 0.08 µM): 0.99
- relative viability ([9]; first compound 0.253 µM): 0.858
- relative viability ([9]; first compound 0.8 µM): 0.989
- relative viability ([9]; first compound 2.53 µM): 1.06
- relative viability ([10]; first compound 0.08 µM): 0.189
- relative viability ([10]; first compound 0.8 µM): 0.213
- relative viability ([10]; first compound 2.53 µM): 0.179
- relative viability ([11]; first compound 0.08 µM): 0.848
- relative viability ([11]; first compound 0.253 µM): 0.715
- relative viability ([11]; first compound 0.8 µM): 0.805
- relative viability ([11]; first compound 2.53 µM): 0.793
- relative viability ([12]; first compound 0.08 µM): 0.842
- relative viability ([12]; first compound 0.253 µM): 0.668
- relative viability ([12]; first compound 0.8 µM): 0.387
- relative viability ([12]; first compound 2.53 µM): 0.555
- relative viability ([13]; first compound 0.08 µM): 0.937
- relative viability ([13]; first compound 0.253 µM): 0.712
- relative viability ([13]; first compound 0.8 µM): 0.862
- relative viability ([13]; first compound 2.53 µM): 0.917
- relative viability ([14]; first compound 0.08 µM): 0.927
- relative viability ([14]; first compound 0.253 µM): 0.756
- relative viability ([14]; first compound 0.8 µM): 0.862
- relative viability ([14]; first compound 2.53 µM): 0.866
- relative viability ([15]; first compound 0.08 µM): 1.01
- relative viability ([15]; first compound 0.253 µM): 0.9
- relative viability ([15]; first compound 0.8 µM): 0.694
- relative viability ([15]; first compound 2.53 µM): 0.558
- relative viability ([16]; first compound 0.08 µM): 1.16
- relative viability ([16]; first compound 0.253 µM): 0.729
- relative viability ([16]; first compound 0.8 µM): 1.39
- relative viability ([16]; first compound 2.53 µM): 0.979
- relative viability ([17]; first compound 0.08 µM): 0.43
- relative viability ([17]; first compound 0.253 µM): 0.49
- relative viability ([17]; first compound 0.8 µM): 0.412
- relative viability ([17]; first compound 2.53 µM): 0.401
- relative viability ([18]; first compound 0.08 µM): 0.962
- relative viability ([18]; first compound 0.253 µM): 0.823
- relative viability ([18]; first compound 0.8 µM): 0.93
- relative viability ([18]; first compound 2.53 µM): 0.891
- relative viability ([19]; first compound 0.08 µM): 1.19
- relative viability ([19]; first compound 0.253 µM): 0.838
- relative viability ([19]; first compound 0.8 µM): 1.02
- relative viability ([19]; first compound 2.53 µM): 0.936
- relative viability ([20]; first compound 0.08 µM): 0.523
- relative viability ([20]; first compound 0.253 µM): 0.452
- relative viability ([20]; first compound 0.8 µM): 0.449
- relative viability ([20]; first compound 2.53 µM): 0.54
- relative viability ([21]; first compound 0.08 µM): 0.822
- relative viability ([21]; first compound 0.253 µM): 0.882
- relative viability ([21]; first compound 0.8 µM): 0.765
- relative viability ([21]; first compound 2.53 µM): 0.782
- relative viability ([22]; first compound 0.08 µM): 1.22
- relative viability ([22]; first compound 0.253 µM): 0.7
- relative viability ([22]; first compound 0.8 µM): 0.697
- relative viability ([22]; first compound 2.53 µM): 1.09
